For data set [1], the system named is Rattus norvegicus. Put plainly: Antihypertensive activity in spontaneously hypertensive rat assessed as reduction in mean arterial blood pressure at 100 mg/kg, po administered as two dose at 24 hrs interval measured 4 hrs post second dose relative to control. Type of data set: functional, Artery. On the set-up: scale not given: the % may be the effect or the level left.

Data set [2] relates to Rattus norvegicus. Put plainly: Antihypertensive activity in spontaneously hypertensive rat assessed as reduction in mean arterial blood pressure at 25 mg/kg, po administered as two dose at 24 hrs interval measured 4 hrs post second dose relative to control. It counts as functional, Artery. Also on record: scale not given: the % may be the effect or the level left.
The test system of data set [3] is Canis familiaris. The experiment in a line: Toxicity in dog assessed ataxia at 10 mg/kg, po administered in gelatin capsules. On the set-up: dose 10 mg/kg, route oral. Type of data set: organism-based, Canis lupus familiaris. The conditions noted are these: in vivo.
The subject of data set [4] is Rattus norvegicus. The experiment in a line: Antihypertensive activity in spontaneously hypertensive rat assessed as reduction in mean arterial blood pressure at 5 mg/kg, po administered as two dose at 24 hrs interval measured 4 hrs post second dose relative to control. Type of data set: functional, Artery. Also on record: scale not given: the % may be the effect or the level left.

Data set [5] concerns Rattus norvegicus. Put plainly: Antihypertensive activity in spontaneously hypertensive rat assessed as reduction in mean arterial blood pressure at 10 mg/kg, po administered as two dose at 24 hrs interval measured 4 hrs post second dose relative to control. Also on record: scale not given: the % may be the effect or the level left. It counts as functional, Artery.
For data set [6], the system named is Rattus norvegicus. The experiment in a line: Toxicity in spontaneously hypertensive rat assessed as adverse effect at 5 to 10 mg/kg, po administered as two dose at 24 hrs interval. It counts as organism-based. Also on record: dose 5-10 mg/kg, route oral. The conditions noted are these: in vivo.
Data set [7] concerns Rattus norvegicus. The experiment in a line: Toxicity in spontaneously hypertensive rat assessed as general depression of cardiovascular function at 100 mg/kg, po administered as two dose at 24 hrs interval. It counts as organism-based, Heart. Also on record: dose 100 mg/kg, route oral. The conditions noted are these: in vivo.
For data set [8], the system named is Canis familiaris. Put plainly: Antihypertensive activity in normotensive dog assessed as reduction in mean arterial blood pressure at 5 to 10 mg/kg, po administered in gelatin capsules. Type of data set: functional, organism-based. The conditions noted are these: Canis lupus familiaris, Artery.

Molecules are shown by their SMILES. Active and inactive are the calls of the source. No cut-off for these calls is given here.

As to `O=C(N/N=C/c1c(Cl)cccc1Cl)N1CCOCC1`, the Activity with Rattus norvegicus [1] was found to be 13%.

`CN(C)C(=O)N/N=C/c1ccc(Cl)cc1`: in the data set with Rattus norvegicus [1], the Activity turned out to be 16%.

For `N=C(N)N/N=C/c1c(Cl)cccc1Cl` [GUANABENZ], the Activity in the data set with Rattus norvegicus [2] is recorded as 26%.

In the case of `CN(C)C(=O)N/N=C/c1c(Cl)cccc1Cl`, the Activity result was “Toxic” in the data set on Canis familiaris [3]; 31% in the data set on Rattus norvegicus [4]; 46% in the data set on Rattus norvegicus [5]; “Non-toxic” with Rattus norvegicus [6]; “Toxic” with Rattus norvegicus [7]. Also, the result in the data set on Canis familiaris [8] was inactive.

For the molecule `CNC(=O)N/N=C/c1c(Cl)cccc1Cl`, the Activity with Rattus norvegicus [1] was determined as 32%.

Source of the values: ChEMBL document CHEMBL3272353, “4-Substituted semicarbazones of mono- and dichlorobenzaldehydes as antihypertensive agents” (J Med Chem, 1977).
